Assay results: patent US20250127166A1, “METHOD FOR PREVENTING INSECT DAMAGE TO PLANTS” (AJINOMOTO CO., INC., priority 2022, published 2025)
“Also recorded” adds a separate entry of the source.

Experiments:
Pieris rapae [1] = assay: 4-hour feeding damage test on Arabidopsis thaliana (Example 3); assay type: in vivo; conditions: for pest damage-suppressing activity: Pieris rapae larva, 4-hour feeding damage test
From the text: The recombinant Arabidopsis thaliana […]: : GCaMP3 was used as a plant material, and cut was formed on the first leaf of the plant grown in the same manner as in Example 1 and treated with a compound. Compound 1 was used as the compound. Sorbitol was used as the negative control, and glutamic acid as the positive control. The test was repeatedly conducted 10 times (using independent plants and pests) per plot. One hour after the treatment with the compound, the plant body and 2-week old larva of Pieris rapae were placed in the same container to perform a 4-hour feeding damage test. Weights of the plant body and larva were measured before and after the test to evaluate the weight of the feeding-damaged plant and the weight gain rate of the pest.

Spodoptera litura = assay: Komatsuna leaf disc feeding damage test (Example 5); assay type: in vivo; conditions: one day
Method: Glutamic acid was used as a positive control, and Jasmomate Ekizai (the active substance is prohydrojasmon, a typical injurious hormone-like substance), which is the only resistance inducer for pest damage on the market, was used as a control. The test was conducted for 10 replicates per plot (independent plants and pests).
The plant material was leaf discs collected from komatsuna (Brassica rapa var. perviridis) seedlings grown for 1 month after seeding on culture soil in pots, and the test organism was early second instar larva of Spodoptera litura. Compound 1 was used as a 1 mM solution in Silwet L-77 4,000-fold dilution solution prepared by adding Silwet L-77 to distilled water as a solvent. As a negative control, 100 mM or 1 mM sorbitol was used, and 100 mM or 1 mM glutamic acid was used as a positive control. […] One day after the release, the number of surviving Spodoptera litura larvae in each test container was counted, and a photograph was taken from a height of 5 cm above the container with the lid open so that the entire image could be photographed. Image analysis software (ImageJ) was used to determine the damage area (feeding damage area), and the average damage area ratio was calculated for each treatment plot.

[2] = system: glutamate receptor of Arabidopsis thaliana; assay: Real-time imaging assay of Ca2+ signals in recombinant Arabidopsis thaliana p35S::GCaMP3; assay type: in vivo; conditions: 3 μL of 100 mM solution (10 mM for some compounds with low solubility) applied to leaf cut; GCaMP3 fluorescence
Method: In this example, Ca2+signals produced by contact of Compounds 1-58 and 67-75 with the glutamate receptor of Arabidopsis thaliana were analyzed by a real-time imaging assay in which Ca2+is visualized by fluorescence color development. That is, by using a recombinant Arabidopsis thaliana p35S: : GCaMP3, which incorporated the gene encoding the calcium-sensitive fluorescent protein GCaMP3, as a material, changes in intracellular Ca2+ levels caused by treatments with Compounds 1-58 and 67-75 were detected as fluorescence luminance of GCaMP3, and thereby Ca2+signal transduction in plant bodies was analyzed in real time.
The real-time imaging assay of the Ca2+signals was performed as follows.
As the plant material, 2-week old recombinant Arabidopsis thaliana p35S: : GCaMP3 grown on sterile agar medium was used. A small cut of about 1 mm was made at the tip of the first leaf with scissors, and the plant was allowed to stand for 35 minutes. The plant was then placed under the field of view of the fluorescence microscope SMZ25 (Nikon Solutions), and 3 μL of a compound solution was applied to the leaf cut. The generated Ca2+signals were examined in real time with ORCA-Flash4.0 V2 (Hamamatsu Photonics). […] Compounds that produced Ca2+signals in one or more leaves were determined to be compounds that induce Ca2+signals.

AtOPR^3 gene = assay: Pest damage resistance gene expression induction by qPCR; assay type: in vivo, Arabidopsis thaliana; conditions: sixth leaves, 30 minutes after compound treatment of cut first leaf; relative to AtACT8; FIG. 1
From the text: As the pest damage resistance gene, the AtOPR^3 (12-oxophytodienoic acid reductase, involved in the jasmonic acid biosynthesis) gene, which is a typical pest damage resistance gene, was selected. As an internal standard, the AtACT8 gene was selected. The recombinant Arabidopsis thaliana p35S: : GCaMP3 was used as a plant material, and cut was formed on the first leaf of the plant cultivated in the same manner as in Example 1 and treated with a compound. As the compound, Compounds 1 and 34 were used. Sixth leaves at 0 and 30 minutes after the compound treatment were collected and frozen in liquid nitrogen. The total RNA was extracted from the frozen leaf samples (50 to 200 mg) by using RNeasy Plant Mini Kit (Qiagen) according to the protocol thereof. The obtained total RNA was subjected to a residual genomic DNA-removing treatment with RNase free DNase I by using TURBO DNase Kit (Ambion) according to the protocol of the kit. By using this total RNA sample and SuperScriptIII First-Strand Synthesis System for RT-PCR (Invitrogen), single-stranded cDNA was prepared. […] The relative expression amount of the AtOPR^3 gene to that of the internal standard AtACT8 gene was calculated by the AACt method. The test was repeatedly performed 4 or 5 times, and the average of the results was calculated.

Pieris rapae [3] = assay: 4-hour feeding damage test on Arabidopsis thaliana, comparison with commercial product (Example 4); assay type: in vivo; conditions: Compound 1 at 100 mM on leaf cut, 4-hour test
Method: The recombinant Arabidopsis thaliana […]: : GCaMP3 was used as a plant material, and cut was formed on the first leaf of the plant cultivated in the same manner as those of Examples 1, 2, and 3 and treated with a compound. Compound 1 and Jasmomate were used as the compound. Compound 1 was used at 100 mM, and Jasmomate was used at a 500-fold dilution concentration (0.4 mM as prohydrojasmon concentration), which is the usual recommended treatment concentration thereof. Sorbitol was used as a negative control. The test was conducted for 15 replicates per plot (independent plants and insects). For Jasmomate, a spray treatment of the leaves was performed (spray plot, Jasmomate was sprayed twice at the concentration mentioned above with an atomizer). The test of the spray plot was conducted for 10 replicates (independent plants and insects). One hour after the compound treatment, the plant body and 2-week old larva of Pieris rapae were placed in the same container to perform a 4-hour feeding damage test. The larva was weighed before and after the test, and the weight gain rate of the pest was evaluated.

Ca2+signal induction [2]	Compound	pest damage-suppressing activity (Pieris rapae [1])	pest damage-suppressing tendency (Spodoptera litura; 100 mM, compared with 100 mM sorbitol plot)	weight of the feeding-damaged plant (Pieris rapae [1]; 2-week old Pieris rapae larva, 4-hour test 1 hour after treatment, vs sorbitol plot, FIG. 2)	weight gain rate of the pest (Pieris rapae [1]; 2-week old Pieris rapae larva, 4-hour test 1 hour after treatment, vs sorbitol plot, FIG. 3)	pest damage resistance gene (AtOPR^3) expression-inducing activity (AtOPR^3 gene)	pest damage-suppressing activity (Pieris rapae [3])	weight gain rate of the pest (Pieris rapae [3]; vs sorbitol plot, FIG. 4)	pest damage-suppressing effect (feeding inhibitory effect) (Spodoptera litura; 1 mM in Silwet L-77 4,000-fold dilution solution)
–	N[C@@H](CCC(=O)O)C(=O)O [glutamic acid, reference compound]	no pest damage-suppressing activity was observed	greater pest damage-suppressing tendency was observed	–	–	–	–	–	–
strong Ca2+signal induction	CC(C)OC(=O)CC[C@H](N)C(=O)O [Compound 1]	distinct pest damage-suppressing activity was observed	–	lower in the Compound 1-treated plot than in the sorbitol-treated plot	lower in the Compound 1-treated plot than in the sorbitol-treated plot	equal to or greater than that of glutamic acid; also recorded: high pest damage resistance gene expression-inducing activity	distinct pest damage-suppressing activity was observed	lower in the Compound 1-treated plot than in the sorbitol-treated plot	higher than those observed for the 100 mM glutamic acid treatment plot and Jasumomate treatment plot
strong Ca2+signal induction	N[C@@H](CCC(=O)N[C@@H](CCC(=O)O)C(=O)O)C(=O)O [Compound 34]	–	–	–	–	equal to or greater than that of glutamic acid	–	–	–
